Values joined by “and” are separate entries in the source; they are usually repeats but may differ in a detail not shown here. Identical values can stand only once.
Assay: xn = mol fraction of the nth substance listed

NC(N)=S + O
viscosity [mPa·s], 100 kPa
Conditions	293.15 K	298.15 K	303.15 K	308.15 K	313.15 K
x1 = 0.00045	1.01	0.907	0.817	0.735	0.668
x1 = 0.0009	1.019	0.916	0.823	0.747	0.677
x1 = 0.0013	1.029	0.935	0.847	0.763	0.702

OC[C@H]1O[C@@](CO)(O[C@H]2O[C@H](CO)[C@@H](O)[C@H](O)[C@H]2O)[C@@H](O)[C@@H]1O + O
Conditions	viscosity
293.15 K, 101 kPa, x1 = 0.00581	1.26 mPa·s and 1.27 mPa·s
293.15 K, 101 kPa, x1 = 0.013	1.96 mPa·s
293.15 K, 101 kPa, x1 = 0.0221	3.21 mPa·s
293.15 K, 101 kPa, x1 = 0.0339	6.2 mPa·s
293.15 K, 101 kPa, x1 = 0.05	15.04 mPa·s and 15.1 mPa·s
293.15 K, 101 kPa, x1 = 0.0732	56.76 mPa·s and 76.48 mPa·s
293.16 K, 101.3 kPa, x1 = 0.013	1.96 mPa·s
293.16 K, 101.3 kPa, x1 = 0.073	56.5 mPa·s
298.15 K, 100 kPa, x1 = 0.0009	1.035 mPa·s
298.15 K, 100 kPa, x1 = 0.001818	0.98 mPa·s
298.15 K, 100 kPa, x1 = 0.004482	1.104 mPa·s
298.15 K, 100 kPa, x1 = 0.007149	1.222 mPa·s
298.15 K, 100 kPa, x1 = 0.008888	1.295 mPa·s
298.15 K, 101 kPa, x1 = 0.003	1.03 mPa·s
298.15 K, 101 kPa, x1 = 0.0058	1.194 mPa·s
298.15 K, 101 kPa, x1 = 0.00581	1.13 mPa·s
298.15 K, 101 kPa, x1 = 0.013	1.715 mPa·s and 1.7 mPa·s
298.15 K, 101 kPa, x1 = 0.017	2.15 mPa·s
298.15 K, 101 kPa, x1 = 0.0221	2.65 mPa·s
298.15 K, 101 kPa, x1 = 0.0339	5.17 mPa·s
298.15 K, 101 kPa, x1 = 0.05	11.49 mPa·s and 11.8 mPa·s
298.15 K, 101 kPa, x1 = 0.0732	43.88 mPa·s and 47.98 mPa·s
303.15 K, 100 kPa, x1 = 0.0009	0.944 mPa·s
303.16 K, 101.3 kPa, x1 = 0.013	1.504 mPa·s
303.16 K, 101.3 kPa, x1 = 0.073	33.78 mPa·s
308.15 K, 100 kPa, x1 = 0.0009	0.8578 mPa·s
308.15 K, 100 kPa, x1 = 0.001818	0.789 mPa·s
308.15 K, 100 kPa, x1 = 0.002681	0.822 mPa·s
308.15 K, 100 kPa, x1 = 0.003594	0.855 mPa·s
308.15 K, 100 kPa, x1 = 0.004482	0.886 mPa·s
308.15 K, 100 kPa, x1 = 0.00626	0.949 mPa·s
308.15 K, 100 kPa, x1 = 0.007149	0.978 mPa·s
308.15 K, 100 kPa, x1 = 0.008888	1.035 mPa·s
308.15 K, 101 kPa, x1 = 0.001814	0.712 mPa·s
308.15 K, 101 kPa, x1 = 0.003	0.822 mPa·s
308.15 K, 101 kPa, x1 = 0.003622	0.777 mPa·s
308.15 K, 101 kPa, x1 = 0.0058	0.949 mPa·s
308.15 K, 101 kPa, x1 = 0.00581	0.89 mPa·s and 0.92 mPa·s
308.15 K, 101 kPa, x1 = 0.007213	0.915 mPa·s
308.15 K, 101 kPa, x1 = 0.0092	1.117 mPa·s
308.15 K, 101 kPa, x1 = 0.013	1.337 mPa·s and 1.35 mPa·s
308.15 K, 101 kPa, x1 = 0.01428	1.291 mPa·s
308.15 K, 101 kPa, x1 = 0.017	1.654 mPa·s
308.15 K, 101 kPa, x1 = 0.01781	1.535 mPa·s
308.15 K, 101 kPa, x1 = 0.0224	2.075 mPa·s
308.15 K, 101 kPa, x1 = 0.0279	2.588 mPa·s
308.15 K, 101 kPa, x1 = 0.0339	3.8 mPa·s
308.15 K, 101 kPa, x1 = 0.0354	3.655 mPa·s
308.15 K, 101 kPa, x1 = 0.05	8.69 mPa·s
308.15 K, 101 kPa, x1 = 0.05167	6.396 mPa·s
308.15 K, 101 kPa, x1 = 0.0732	26.67 mPa·s and 27.9 mPa·s
313.15 K, 100 kPa, x1 = 0.0009	0.7866 mPa·s
313.15 K, 101 kPa, x1 = 0.00581	0.82 mPa·s
313.15 K, 101 kPa, x1 = 0.013	1.2 mPa·s
313.15 K, 101 kPa, x1 = 0.0339	3.25 mPa·s
313.15 K, 101 kPa, x1 = 0.05	6.35 mPa·s and 6.35 mPa·s
313.15 K, 101 kPa, x1 = 0.0732	21.32 mPa·s and 25.87 mPa·s
313.16 K, 101.3 kPa, x1 = 0.013	1.193 mPa·s
313.16 K, 101.3 kPa, x1 = 0.073	21.28 mPa·s
318.15 K, 100 kPa, x1 = 0.001818	0.657 mPa·s
318.15 K, 100 kPa, x1 = 0.002681	0.683 mPa·s
318.15 K, 100 kPa, x1 = 0.003594	0.709 mPa·s
318.15 K, 100 kPa, x1 = 0.004482	0.733 mPa·s
318.15 K, 100 kPa, x1 = 0.00626	0.783 mPa·s
318.15 K, 100 kPa, x1 = 0.007149	0.805 mPa·s
318.15 K, 100 kPa, x1 = 0.008888	0.86 mPa·s
318.15 K, 101 kPa, x1 = 0.00581	0.74 mPa·s
318.15 K, 101 kPa, x1 = 0.00722	0.771 mPa·s
318.15 K, 101 kPa, x1 = 0.01077	0.9 mPa·s
318.15 K, 101 kPa, x1 = 0.013	1.06 mPa·s
318.15 K, 101 kPa, x1 = 0.01432	0.984 mPa·s
318.15 K, 101 kPa, x1 = 0.01785	1.164 mPa·s
318.15 K, 101 kPa, x1 = 0.02128	1.431 mPa·s
318.15 K, 101 kPa, x1 = 0.0221	1.51 mPa·s
318.15 K, 101 kPa, x1 = 0.0339	2.84 mPa·s
318.15 K, 101 kPa, x1 = 0.03502	2.618 mPa·s
318.15 K, 101 kPa, x1 = 0.05	5.04 mPa·s and 5.1 mPa·s
318.15 K, 101 kPa, x1 = 0.0732	17.2 mPa·s and 17.98 mPa·s
323.15 K, 101 kPa, x1 = 0.00581	0.66 mPa·s
323.15 K, 101 kPa, x1 = 0.013	0.98 mPa·s
323.15 K, 101 kPa, x1 = 0.0221	1.36 mPa·s
323.15 K, 101 kPa, x1 = 0.0339	2.52 mPa·s
323.15 K, 101 kPa, x1 = 0.05	4.78 mPa·s and 4.82 mPa·s
323.15 K, 101 kPa, x1 = 0.0732	14.07 mPa·s and 16.78 mPa·s

Source: the CheMixHub viscosity set
